Reference: US12319676B2, “Substituted amide compounds useful as farnesoid X receptor modulators” (BRISTOL-MYERS SQUIBB COMPANY, priority 2019, dated 2025)

Target: T1, human FXR (Homo sapiens, UniProt Q96RI1)
T1 construct: expressed in transfected cells; host or cells: HEK293 cells stably carrying a 5xGal4 response element-luciferase reporter, transiently transfected with pcDNA3.1-Gal4-FXR
T1 sequence (Q96RI1 262-486 limits assumed): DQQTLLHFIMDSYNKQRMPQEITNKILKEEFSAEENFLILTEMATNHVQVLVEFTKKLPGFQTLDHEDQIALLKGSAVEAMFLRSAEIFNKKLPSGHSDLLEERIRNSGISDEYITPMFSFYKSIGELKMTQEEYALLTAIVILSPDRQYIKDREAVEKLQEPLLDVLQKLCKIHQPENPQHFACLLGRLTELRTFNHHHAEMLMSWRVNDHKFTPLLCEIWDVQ
Assay: transient human FXR/Gal4-luciferase reporter assay
Format: cell-based
Settings: Gal4-hFXR fusion construct, luciferase reporter in HEK293 cells; overnight incubation; response as percentage of 8 μM GW-4064 control
Outline: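 HEK293 cells stably carrying a 5×Gal4-response-element firefly luciferase reporter were transiently transfected with a Gal4 DBD-human FXR LBD fusion, then treated overnight with compounds at 37 °C. Steady-Glo luminescence, minus DMSO background, was expressed as percent of the response to 8 μM GW-4064.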

Row | Structure (SMILES) | EC50 [nM]
1 | CS(=O)(=O)Nc1cccc(N(CC23CCC(c4nc(C5CC5)no4)(CC2)CC3)C(=O)C23CC(F)(C2)C3)c1 [Example 66, N-((4-(3-cyclopropyl-1,2,4-oxadiazol-5-yl)bicyclo[2.2.2]octan-1-yl)methyl)-3-fluoro-N-(3-(methylsulfonamido)phenyl)bicyclo[1.1.1]pentane-1-carboxamide] | 4000
2 | CS(=O)(=O)Nc1cccc(N(CC23CCC(c4nc(C5CC5)no4)(CC2)CC3)C(=O)[C@H]2C[C@](O)(C(F)(F)F)C2)c1 [Example 67, (1S,3S)-N-((4-(3-cyclopropyl-1,2,4-oxadiazol-5-yl)bicyclo[2.2.2]octan-1-yl)methyl)-3-hydroxy-N-(3-(methylsulfonamido)phenyl)-3-(trifluoromethyl)cyclobutane-1-carboxamide] | 4000
3 | CS(=O)(=O)c1cccc(N(CC23CCC(c4nc(C5CC5)no4)(CC2)CC3)C(=O)C2CCC(F)(F)CC2)c1 [Example 69, N-((4-(3-cyclopropyl-1,2,4-oxadiazol-5-yl)bicyclo[2.2.2]octan-1-yl)methyl)-4,4-difluoro-N-(3-(methylsulfonyl)phenyl)cyclohexane-1-carboxamide] | 4000
4 | Cn1nc(C2CC2)cc1C12CCC(CN(C(=O)C3CCC(F)(F)CC3)c3cccc(C#N)c3)(CC1)CC2 [Example 73, N-(3-cyanophenyl)-N-((4-(3-cyclopropyl-1-methyl-1H-pyrazol-5-yl)bicyclo[2.2.2]octan-1-yl)methyl)-4,4-difluorocyclohexane-1-carboxamide] | 2130
5 | Cn1nc(C2CC2)cc1C12CCC(CN(c3cccc(S(C)(=O)=O)c3)C(=O)[C@H]3C[C@](O)(C(F)(F)F)C3)(CC1)CC2 [Example 76, (1S,3S)—N-((4-(3-cyclopropyl-1-methyl-1H-pyrazol-5-yl)bicyclo[2.2.2]octan-1-yl)methyl)-3-hydroxy-N-(3-(methylsulfonyl)phenyl)-3-(trifluoromethyl)cyclobutane-1-carboxamide] | 4000
6 | Cn1nc(C2CC2)cc1C12CCC(CN(C(=O)C3CCC(F)(F)CC3)c3cccc(S(C)(=O)=O)c3)(CC1)CC2 [Example 77, N-((4-(3-cyclopropyl-1-methyl-1H-pyrazol-5-yl)bicyclo[2.2.2]octan-1-yl)methyl)-4,4-difluoro-N-(3-(methylsulfonyl)phenyl) cyclohexane-1-carboxamide] | 4000
7 | Cn1nc(C2CC2)cc1C12CCC(CN(C(=O)C34CC(F)(C3)C4)c3cccc(S(C)(=O)=O)c3)(CC1)CC2 [Example 78, N-((4-(3-cyclopropyl-1-methyl-1H-pyrazol-5-yl)bicyclo[2.2.2]octan-1-yl)methyl)-3-fluoro-N-(3-(methylsulfonyl)phenyl)bicyclo[1.1.1]pentane-1-carboxamide] | 4000
8 | COC(=O)COc1cccc(N(CC23CCC(c4ccc5c(cnn5C)c4)(CC2)OC3)C(=O)C2CCOCC2)c1 [Example 81, Methyl 2-(3-(N-((1-(1-methyl-1H-indazol-5-yl)-2-oxabicyclo[2.2.2]octan-4-yl)methyl)tetrahydro-2H-pyran-4-carboxamido)phenoxy) acetate] | 4360

Stronger by EC50, values ahead:

Row | EC50 [nM] | Structure (SMILES)
9 | 2000 | CC(N(C(=O)C12CC(F)(C1)C2)c1cccc(C#N)c1)C12CCC(c3nc(C4CC4)no3)(CC1)CC2 (stereo not shown) [Example 70, N-(3-cyanophenyl)-N-(1-(4-(3-cyclopropyl-1,2,4-oxadiazol-5-yl)bicyclo[2.2.2]octan-1-yl)ethyl)-3-fluorobicyclo[1.1.1]pentane-1-carboxamide]
10 | 1600 | COC(=O)COc1cccc(N(CC23CCC(c4ccc(N(C)C)cc4)(CC2)CC3)C(=O)C2CCCCC2)c1 [Example 80, Methyl 2-(3-(N-((4-(4-(dimethylamino)phenyl)bicyclo[2.2.2]octan-1-yl)methyl)cyclohexanecarboxamido)phenoxy) acetate]
11 | 1490 | CS(=O)(=O)c1cccc(N(CC23CCC(c4nc(C5CC5)no4)(CC2)CC3)C(=O)C23CC(F)(C2)C3)c1 [Example 68, N-((4-(3-cyclopropyl-1,2,4-oxadiazol-5-yl)bicyclo[2.2.2]octan-1-yl)methyl)-3-fluoro-N-(3-(methylsulfonyl)phenyl)bicyclo[1.1.1]pentane-1-carboxamide]
12 | 1380 | Cn1nc(C2CC2)cc1C12CCC(CN(c3cccc(C#N)c3)C(=O)[C@H]3C[C@](O)(C(F)(F)F)C3)(CC1)CC2 [Example 75, (1S,3S)-N-(3-cyanophenyl)-N-((4-(3-cyclopropyl-1-methyl-1H-pyrazol-5-yl)bicyclo[2.2.2]octan-1-yl)methyl)-3-hydroxy-3-(trifluoromethyl)cyclobutane-1-carboxamide]
13 | 1350 | Cn1nc(C2CC2)cc1C12CCC(CN(c3cccc(C#N)c3)C(=O)[C@H]3C[C@@](C)(O)C3)(CC1)CC2 [Example 74, (1S,3S)-N-(3-cyanophenyl)-N-((4-(3-cyclopropyl-1-methyl-1H-pyrazol-5-yl)bicyclo[2.2.2]octan-1-yl)methyl)-3-hydroxy-3-methylcyclobutane-1-carboxamide]
14 | 1280 | CS(=O)(=O)Nc1cccc(N(CC23CCC(c4nc(C5CC5)no4)(CC2)CC3)C(=O)C2CC(F)(F)C2)c1 [Example 65, N-((4-(3-cyclopropyl-1,2,4-oxadiazol-5-yl)bicyclo[2.2.2]octan-1-yl)methyl)-3,3-difluoro-N-(3-(methylsulfonamido)phenyl)cyclobutane-1-carboxamide]
15 | 1050 | N#Cc1cc(F)cc(N(CC23CCC(c4nc(C5CC5)no4)(CC2)CC3)C(=O)[C@H]2C[C@](O)(C(F)(F)F)C2)c1 [Example 63, (1S,3S)-N-(3-cyano-5-fluorophenyl)-N-((4-(3-cyclopropyl 1,2,4-oxadiazol-5-yl)bicyclo[2.2.2]octan-1-yl)methyl)-3-hydroxy-3-(trifluoromethyl)cyclobutane-1-carboxamide]
16 | 1040 | COC(=O)COc1cccc(N(CC23CCC(c4ccc(N(C)C)c(Cl)c4)(CC2)CC3)C(=O)C2CCCCC2)c1 [Example 79, Methyl 2-(3-(N-((4-(3-chloro-4-(dimethylamino)phenyl)bicyclo[2.2.2]octan-1-yl)methyl)cyclohexanecarboxamido)phenoxy) acetate]
17 | 993 | Cn1nc(C2CC2)cc1C12CCC(CN(C(=O)C34CC(F)(C3)C4)c3cccc(C#N)c3)(CC1)CC2 [Example 72, N-(3-cyanophenyl)-N-((4-(3-cyclopropyl-1-methyl-1H-pyrazol-5-yl)bicyclo[2.2.2]octan-1-yl)methyl)-3-fluorobicyclo[1.1.1]pentane-1-carboxamide]
18 | 528 | N#Cc1cc(F)cc(N(CC23CCC(c4nc(C5CC5)no4)(CC2)CC3)C(=O)C2CC(F)(F)C2)c1 [Example 64, N-(3-cyano-5-fluorophenyl)-N-((4-(3-cyclopropyl-1,2,4-oxadiazol-5-yl)bicyclo[2.2.2]octan-1-yl)methyl)-3,3-difluorocyclobutane-1-carboxamide]
19 | 185 | N#Cc1cc(F)cc(N(CC23CCC(c4nc(C5CC5)no4)(CC2)CC3)C(=O)C23CC(F)(C2)C3)c1 [Example 62, N-(3-cyano-5-fluorophenyl)-N-((4-(3-cyclopropyl-1,2,4-oxadiazol-5-yl)bicyclo[2.2.2]octan-1-yl)methyl)-3-fluorobicyclo[1.1.1]pentane-1-carboxamide]
